Results: PubChem BioAssay (NCI)
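Briefly, cells in 96-well plates were exposed to five compound concentrations for 48 h, and endpoints were estimated by linear interpolation. GI50 is the concentration that inhibits growth by half. TGI: concentration producing complete growth inhibition.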

Key:
Assay in all cases: DTP human tumour cell line panel, 48 h
M14 melanoma = test system: M14 melanoma
MCF7 breast = test system: MCF7 breast
SK-MEL-28 melanoma = test system: SK-MEL-28 melanoma
U251 CNS = test system: U251 CNS
MOLT-4 leukemia = test system: MOLT-4 leukemia
K-562 leukemia = test system: K-562 leukemia
DU-145 prostate = test system: DU-145 prostate
LOX IMVI melanoma = test system: LOX IMVI melanoma
RXF 393 renal = test system: RXF 393 renal
HT29 colon = test system: HT29 colon
OVCAR-8 ovarian = test system: OVCAR-8 ovarian
RPMI-8226 leukemia = test system: RPMI-8226 leukemia
MDA-MB-468 breast = test system: MDA-MB-468 breast
A498 renal = test system: A498 renal
HOP-92 NSCLC = test system: HOP-92 NSCLC
CCRF-CEM leukemia = test system: CCRF-CEM leukemia
HCC-2998 colon = test system: HCC-2998 colon
KM12 colon = test system: KM12 colon
COLO 205 colon = test system: COLO 205 colon
A549 NSCLC = test system: A549 NSCLC
SK-MEL-5 melanoma = test system: SK-MEL-5 melanoma
NCI-H23 lung = test system: NCI-H23 lung
TK-10 renal = test system: TK-10 renal
HOP-62 NSCLC = test system: HOP-62 NSCLC
SW-620 colon = test system: SW-620 colon
NCI-H226 lung = test system: NCI-H226 lung
786-0 renal = test system: 786-0 renal
SF-268 CNS = test system: SF-268 CNS
CAKI-1 renal = test system: CAKI-1 renal
NCI-H522 lung = test system: NCI-H522 lung
HL-60(TB) leukemia = test system: HL-60(TB) leukemia
NCI-H460 lung = test system: NCI-H460 lung
NCI/ADR-RES ovarian = test system: NCI/ADR-RES ovarian
MDA-MB-231 breast = test system: MDA-MB-231 breast
SNB-19 CNS = test system: SNB-19 CNS
UACC-257 melanoma = test system: UACC-257 melanoma
SR leukemia = test system: SR leukemia
IGROV1 ovarian = test system: IGROV1 ovarian
HCT-116 colon = test system: HCT-116 colon
OVCAR-5 ovarian = test system: OVCAR-5 ovarian
HCT-15 colon = test system: HCT-15 colon
PC-3 prostate = test system: PC-3 prostate
SF-295 CNS = test system: SF-295 CNS
MDA-MB-435 = test system: MDA-MB-435
SF-539 CNS = test system: SF-539 CNS
SK-OV-3 ovarian = test system: SK-OV-3 ovarian
BT-549 breast = test system: BT-549 breast
MALME-3M melanoma = test system: MALME-3M melanoma
UACC-62 melanoma = test system: UACC-62 melanoma
SNB-75 CNS = test system: SNB-75 CNS
EKVX NSCLC = test system: EKVX NSCLC
HS 578T breast = test system: HS 578T breast
T-47D breast = test system: T-47D breast
SN12C renal = test system: SN12C renal
SK-MEL-2 melanoma = test system: SK-MEL-2 melanoma
UO-31 renal = test system: UO-31 renal
OVCAR-4 ovarian = test system: OVCAR-4 ovarian
OVCAR-3 ovarian = test system: OVCAR-3 ovarian
ACHN renal = test system: ACHN renal

COc1cnc2c(c1)C(=O)c1c-2n(CCCNC(C)C)c(=O)c2cc(OC)c(OC)cc12
GI50 (M14 melanoma): 4.91 µM
TGI (M14 melanoma): 20 µM
GI50 (MCF7 breast): 0.222 µM
TGI (MCF7 breast): 11.9 µM
GI50 (SK-MEL-28 melanoma): 16 µM
TGI (SK-MEL-28 melanoma): 29.7 µM
GI50 (U251 CNS): 0.667 µM
TGI (U251 CNS): 17.2 µM
GI50 (MOLT-4 leukemia): 0.107 µM
TGI (MOLT-4 leukemia): 5.59 µM
GI50 (K-562 leukemia): 0.496 µM
TGI (K-562 leukemia): 22.5 µM
GI50 (DU-145 prostate): 1.27 µM
TGI (DU-145 prostate): 13.5 µM
GI50 (LOX IMVI melanoma): 1.19 µM
TGI (LOX IMVI melanoma): 4.6 µM
GI50 (RXF 393 renal): 1.35 µM
TGI (RXF 393 renal): 5.71 µM
GI50 (HT29 colon): 1.43 µM
TGI (HT29 colon): 10.1 µM
GI50 (OVCAR-8 ovarian): 6.05 µM
TGI (OVCAR-8 ovarian): 22.1 µM
GI50 (RPMI-8226 leukemia): 1.39 µM
TGI (RPMI-8226 leukemia): 14.9 µM
GI50 (MDA-MB-468 breast): 0.68 µM
TGI (MDA-MB-468 breast): 7.75 µM
GI50 (A498 renal): 14.2 µM
TGI (A498 renal): 27.5 µM
GI50 (HOP-92 NSCLC): 9.11 µM
TGI (HOP-92 NSCLC): 23.9 µM
GI50 (CCRF-CEM leukemia): 0.256 µM
TGI (CCRF-CEM leukemia): 89.9 µM
GI50 (HCC-2998 colon): 3.09 µM
TGI (HCC-2998 colon): 16.8 µM
GI50 (KM12 colon): 8.02 µM
TGI (KM12 colon): 21.9 µM
GI50 (COLO 205 colon): 5.74 µM
TGI (COLO 205 colon): 22.6 µM
GI50 (A549 NSCLC): 5.7 µM
TGI (A549 NSCLC): 23.8 µM
GI50 (SK-MEL-5 melanoma): 1.7 µM
TGI (SK-MEL-5 melanoma): 11.9 µM
GI50 (NCI-H23 lung): 0.977 µM
TGI (NCI-H23 lung): 11.3 µM
GI50 (TK-10 renal): 14.2 µM
TGI (TK-10 renal): 28 µM
GI50 (HOP-62 NSCLC): 0.702 µM
TGI (HOP-62 NSCLC): 7.94 µM
GI50 (SW-620 colon): 0.946 µM
TGI (SW-620 colon): 20.5 µM
GI50 (NCI-H226 lung): 2.55 µM
TGI (NCI-H226 lung): 16.6 µM
GI50 (786-0 renal): 5.51 µM
TGI (786-0 renal): 19.1 µM
GI50 (SF-268 CNS): 1.31 µM
TGI (SF-268 CNS): 19.1 µM
GI50 (CAKI-1 renal): 2.17 µM
TGI (CAKI-1 renal): 15.7 µM
GI50 (NCI-H522 lung): 0.536 µM
TGI (NCI-H522 lung): 12.6 µM
GI50 (HL-60(TB) leukemia): 3.54 µM
TGI (HL-60(TB) leukemia): 17.2 µM
GI50 (NCI-H460 lung): 0.3 µM
TGI (NCI-H460 lung): 11.9 µM
GI50 (NCI/ADR-RES ovarian): 1.73 µM
TGI (NCI/ADR-RES ovarian): 14.6 µM
GI50 (MDA-MB-231 breast): 3.35 µM
TGI (MDA-MB-231 breast): 17.9 µM
GI50 (SNB-19 CNS): 1.2 µM
TGI (SNB-19 CNS): 12.8 µM
GI50 (UACC-257 melanoma): 12 µM
TGI (UACC-257 melanoma): 25.2 µM
GI50 (SR leukemia): 0.369 µM
TGI (SR leukemia): 4.85 µM
GI50 (IGROV1 ovarian): 10.8 µM
TGI (IGROV1 ovarian): 23.3 µM
GI50 (HCT-116 colon): 1.02 µM
TGI (HCT-116 colon): 12.8 µM
GI50 (OVCAR-5 ovarian): 12.3 µM
TGI (OVCAR-5 ovarian): 25.5 µM
GI50 (HCT-15 colon): 1.86 µM
TGI (HCT-15 colon): 16.3 µM
GI50 (PC-3 prostate): 6.53 µM
TGI (PC-3 prostate): 30.5 µM
GI50 (SF-295 CNS): 0.29 µM
TGI (SF-295 CNS): 12.6 µM
GI50 (MDA-MB-435): 6.52 µM
TGI (MDA-MB-435): 20.3 µM
GI50 (SF-539 CNS): 1.36 µM
TGI (SF-539 CNS): 3.76 µM
GI50 (SK-OV-3 ovarian): 1.52 µM
TGI (SK-OV-3 ovarian): 8.18 µM
GI50 (BT-549 breast): 4.26 µM
TGI (BT-549 breast): 20.6 µM
GI50 (MALME-3M melanoma): 11.5 µM
TGI (MALME-3M melanoma): 24 µM
GI50 (UACC-62 melanoma): 2.43 µM
TGI (UACC-62 melanoma): 16.1 µM
GI50 (SNB-75 CNS): 0.155 µM
TGI (SNB-75 CNS): 7.49 µM
GI50 (EKVX NSCLC): 10.4 µM
TGI (EKVX NSCLC): 22.4 µM
GI50 (HS 578T breast): 11.2 µM
TGI (HS 578T breast): 32.6 µM
GI50 (T-47D breast): 4.97 µM
TGI (T-47D breast): 22.2 µM
GI50 (SN12C renal): 4.19 µM
TGI (SN12C renal): > 100 µM
GI50 (SK-MEL-2 melanoma): 18.5 µM
TGI (SK-MEL-2 melanoma): 37.8 µM
GI50 (UO-31 renal): 5.88 µM
TGI (UO-31 renal): 19.7 µM
GI50 (OVCAR-4 ovarian): 2.5 µM
TGI (OVCAR-4 ovarian): 7.63 µM
GI50 (OVCAR-3 ovarian): 8.99 µM
TGI (OVCAR-3 ovarian): 22.6 µM
GI50 (ACHN renal): 1.75 µM
TGI (ACHN renal): 13.7 µM
